Key:
compound-treated mice = experiment: Neuropharmacological assay (SmartCube): behavioral activity signature and minimal effective dose; format: in vivo; settings: for AD: ADHD (probability of activity signature) / AG: analgesic (probability of activity signature) / AX: anxiolytic (probability of activity signature) / CE: cognitive enhancer (probability of activity signature) / DP: anti-depressant (probability of activity signature) / MS: mood stabilizer (probability of activity signature) / PS: anti-psychotic (probability of activity signature) / SD: sedative hypnotic (probability of activity signature) / UN: uncharacterized CNS activity (probability of activity signature): i.p. 15 min before test, most efficacious dose(s)
In short: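 Mice dosed i.p. 15 min before test, compound in N-methyl-2-pyrrolidone/PEG/propylene glycol, 3 doses; video-captured behavior matched to reference-drug signatures, giving per-class probabilities at most efficacious dose. MED from doses typically 0.3–30 mpk, defined as lowest dose with ≥50% total activity.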

Adult male AJ mice = experiment: Tail suspension test (TST); format: in vivo; parameters: key: −: No decrease in Mean Total Time Immobile; +: Significant decrease in Mean Total Time Immobile (P < 0.05 vs vehicle)
Source text: The tail suspension test (TST) is a rodent screening test for potential (human) antidepressant drugs. It is based on the assumption that an animal will actively try to escape an aversive (stressful) stimulus. If escape is impossible, the animal will eventually stop trying (“give up”). In the TST, a mouse is suspended by the tail so that its body dangles in the air, head downward. Mice initially struggle to face upward and climb to a solid surface. When the animal stops struggling and hangs immobile it is considered to have “given up”. Shorter periods of immobility are characteristic of antidepressant-like activity. Accordingly, longer periods of immobility are considered indicative of a depressive-like state. It has been shown that treatment with an antidepressant drug will decrease the time the animal spends immobile. See generally L. Steru et al., Psychopharmacology (Berl). 1985; 85(3):367-70; B. Thierry et al., Psychopharmacology 1986; 90:284-85.
Adult male AJ mice from Jackson Laboratories received vehicle (sterile water) or test compound orally by gavage, or the positive control desipramine (20 mg/kg, i.p.), in 10 mL/kg injection volumes, 30 min before being subjected to the Tail Suspension Test. In this test, mice are placed in the Tail Suspension chambers (white polyvinylchloride cubicles measuring 33×33×31.75 cm Med Associates, Inc. St. Albans, Vt.) by a piece of transparent (Scotch®) tape attached to the tail, from about the mid-tail, with approximately 2 cm of tape past the end of the tail for 10 min during which the time spent immobile is measured. A reduction in total time immobile relative to the vehicle condition indicates an antidepressant drug-like response.

[1] = MED = dose having 50% or more total activity

Structure (SMILES) | Potency: minimal effective dose (MED) (compound-treated mice; [1]) | AD: ADHD (probability of activity signature) (compound-treated mice) | AG: analgesic (probability of activity signature) (compound-treated mice) | AX: anxiolytic (probability of activity signature) (compound-treated mice) | CE: cognitive enhancer (probability of activity signature) (compound-treated mice) | DP: anti-depressant (probability of activity signature) (compound-treated mice) | MS: mood stabilizer (probability of activity signature) (compound-treated mice) | PS: anti-psychotic (probability of activity signature) (compound-treated mice) | SD: sedative hypnotic (probability of activity signature) (compound-treated mice) | UN: uncharacterized CNS activity (probability of activity signature) (compound-treated mice) | Mean Total Time Immobile (Adult male AJ mice; 10 mg/kg PO) | Mean Total Time Immobile (Adult male AJ mice; 30 mg/kg PO) | minimal effective dose (compound-treated mice; Mus musculus, ip, MED = dose having 50% or more total activity, read-out: Potency: minimal effective dose (MED)) | Mean Total Time Immobile (Adult male AJ mice; 3 mg/kg PO)
N[C@@H]1COCc2ccc3ccccc3c21 (single isomer, unassigned) [Example 117] | B (>3 to 10 mpk) | + (LOQ ≤ + <5%) | ++ (5% ≤ ++ <25%) | ++ (5% ≤ ++ <25%) | ++ (5% ≤ ++ <25%) | ++ (5% ≤ ++ <25%) | ++ (5% ≤ ++ <25%) | +++ (25% ≤ +++ <50%) | + (LOQ ≤ + <5%) | + (LOQ ≤ + <5%) | + | − |  | 
Cc1ccc2c(c1)[C@H](N)COC2 [Example 123] | A (≤3 mpk) | + (LOQ ≤ + <5%) | ++ (5% ≤ ++ <25%) | ++ (5% ≤ ++ <25%) | + (LOQ ≤ + <5%) | ++ (5% ≤ ++ <25%) | + (LOQ ≤ + <5%) | ++ (5% ≤ ++ <25%) | ++ (5% ≤ ++ <25%) | +++ (25% ≤ +++ <50%) | − | − |  | 
Cc1ccc2c(c1)[C@@H](N)COC2 [Example 124] | B (>3 to 10 mpk) | + (LOQ ≤ + <5%) | ++ (5% ≤ ++ <25%) | +++ (25% ≤ +++ <50%) | ++ (5% ≤ ++ <25%) | ++ (5% ≤ ++ <25%) | + (LOQ ≤ + <5%) | ++ (5% ≤ ++ <25%) | ++ (5% ≤ ++ <25%) | +++ (25% ≤ +++ <50%) | − | − |  | 
N[C@H]1COCc2ccc(F)cc21 (single isomer, unassigned) [Example 114] | C (>10 to ≤30 mpk) | + (LOQ ≤ + <5%) | ++ (5% ≤ ++ <25%) | ++ (5% ≤ ++ <25%) | ++ (5% ≤ ++ <25%) | ++ (5% ≤ ++ <25%) | + (LOQ ≤ + <5%) | ++ (5% ≤ ++ <25%) | + (LOQ ≤ + <5%) | +++ (25% ≤ +++ <50%) | − | + |  | 
N[C@H]1COCc2ccc3ccccc3c21 (single isomer, unassigned) [Example 118] | B (>3 to 10 mpk) | + (LOQ ≤ + <5%) | ++ (5% ≤ ++ <25%) | ++ (5% ≤ ++ <25%) | ++ (5% ≤ ++ <25%) | +++ (25% ≤ +++ <50%) | + (LOQ ≤ + <5%) | ++ (5% ≤ ++ <25%) | ++ (5% ≤ ++ <25%) | + (LOQ ≤ + <5%) | − | − |  | 
N[C@@H]1COCc2ccccc21 (single isomer, unassigned) [Example 111] |  | + (LOQ ≤ + <5%) | ++ (5% ≤ ++ <25%) | ++ (5% ≤ ++ <25%) | ++ (5% ≤ ++ <25%) | ++ (5% ≤ ++ <25%) | + (LOQ ≤ + <5%) | ++ (5% ≤ ++ <25%) | + (LOQ ≤ + <5%) | +++ (25% ≤ +++ <50%) | − | − | 3 to 10 mg/kg | −

Reference: patent US11077090B2, “Compounds and compositions and uses thereof” (Sunovion Pharmaceuticals Inc., priority 2016, dated 2021)
